These results are taken from US9834513B2, “Benzylamine derivatives” (KALVISTA PHARMACEUTICALS LIMITED, priority 2013, dated 2017).

For one series, the target named is trypsin (Homo sapiens, UniProt P07477). The series can be described thus: Determination of enzyme selectivity: trypsin. Format: biochemical. The note with it: substrate at Km concentration. The method, then:
Human serine protease enzymes plasmin, thrombin, trypsin, Factor Xa and Factor XIIa were assayed for enzymatic activity using an appropriate fluorogenic substrate. Protease activity was measured by monitoring the accumulation of liberated fluorescence from the substrate over 5 minutes. The linear rate of fluorescence increase per minute was expressed as percentage (%) activity. The Km for the cleavage of each substrate was determined by standard transformation of the Michaelis-Menten equation.

A further series has as its target Human plasma kallikrein (Homo sapiens (Human), UniProt P03952). As to the kind of experiment: Determination of the IC50 for plasma kallikrein. Format: biochemical. The conditions noted are these: 37° C., fluorogenic substrate H-DPro-Phe-Arg-AFC; read-out: IC50 (human PKal). The method, then: Human plasma kallikrein (Protogen) was incubated at 37° C. with the fluorogenic substrate H-DPro-Phe-Arg-AFC and various concentrations of the test compound. Residual enzyme activity (initial rate of reaction) was determined by measuring the change in optical absorbance at 410 nm and the IC50 value for the test compound was determined.

The target of the next series is Human KLK1 (Homo sapiens (Human), UniProt P06870). The series can be described thus: Determination of the IC50 for KLK1. Format: biochemical. The conditions noted are these: 37° C., fluorogenic substrate H-DVal-Leu-Arg-AFC. The protocol: KLK1 inhibitory activity in vitro was determined using standard published methods (see e.g. Johansen et al., Int. J. Tiss. Reac. 1986, 8, 185; Shori et al., Biochem. Pharmacol., 1992, 43, 1209; Stürzebecher et al., Biol. Chem. Hoppe-Seyler, 1992, 373, 1025). Human KLK1 (Callbiochem) was incubated at 37° C. with the fluorogenic substrate H-DVal-Leu-Arg-AFC and various concentrations of the test compound. Residual enzyme activity (initial rate of reaction) was determined by measuring the change in optical absorbance at 410 nm and the IC50 value for the test compound was determined.

In the next series the test system is diabetic rats. The conditions noted are these: cited from earlier work.

Chain of Human plasma kallikrein (P03952 391-638): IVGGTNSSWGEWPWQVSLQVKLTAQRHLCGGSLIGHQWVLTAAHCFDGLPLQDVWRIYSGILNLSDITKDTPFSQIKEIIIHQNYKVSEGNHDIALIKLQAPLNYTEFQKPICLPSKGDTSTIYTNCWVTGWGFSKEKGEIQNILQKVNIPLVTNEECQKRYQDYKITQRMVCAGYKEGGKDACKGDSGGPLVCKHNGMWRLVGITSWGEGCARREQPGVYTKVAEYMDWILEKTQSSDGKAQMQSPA
Chain of Human plasma kallikrein (P03952 20-390 partner): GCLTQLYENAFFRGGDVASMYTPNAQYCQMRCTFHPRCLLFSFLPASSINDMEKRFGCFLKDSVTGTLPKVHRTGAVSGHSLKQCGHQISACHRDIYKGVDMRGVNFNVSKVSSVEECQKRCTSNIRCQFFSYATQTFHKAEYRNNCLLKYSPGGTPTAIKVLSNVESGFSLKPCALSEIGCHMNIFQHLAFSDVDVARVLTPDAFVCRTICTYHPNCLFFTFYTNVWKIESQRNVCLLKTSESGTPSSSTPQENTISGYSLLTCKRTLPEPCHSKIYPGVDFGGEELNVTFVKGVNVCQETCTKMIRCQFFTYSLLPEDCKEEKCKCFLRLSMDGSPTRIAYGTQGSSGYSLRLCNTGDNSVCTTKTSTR
Chain of Human KLK1 (P06870 25-262): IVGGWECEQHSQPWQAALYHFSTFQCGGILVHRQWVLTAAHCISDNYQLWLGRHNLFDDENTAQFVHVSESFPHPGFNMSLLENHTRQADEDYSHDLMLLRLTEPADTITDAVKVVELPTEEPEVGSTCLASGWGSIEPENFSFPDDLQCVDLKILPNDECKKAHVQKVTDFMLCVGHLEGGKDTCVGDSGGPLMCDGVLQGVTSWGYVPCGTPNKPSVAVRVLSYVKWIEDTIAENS

For the compound `Cc1cc(C(=O)NCc2ccc(CN)cc2)c(C)n1Cc1csc(-c2ccccc2)n1` [Example 1, 2,5-Dimethyl-1-(2-phenyl-thiazol-4-ylmethyl)-1H-pyrrole-3-carboxylic acid 4-aminomethyl-benzylamide], at trypsin, the IC50 was greater than 40 µM.
Regarding `Cc1cc(C(=O)NCc2ccc(CN)cc2)c(C)n1Cc1ccc(-c2ccncc2)s1` [Example 21, 2,5-Dimethyl-1-(5-pyridin-4-yl-thiophen-2-ylmethyl)-1H-pyrrole-3-carboxylic acid 4-aminomethyl-benzylamide], the figures for the IC50 at Human plasma kallikrein and at Human KLK1 were 4.52 µM and 7.5 µM, respectively.
In the case of `NCc1ccc(CNC(=O)c2cn(Cc3csc(-c4ccccc4)n3)nc2C(F)(F)F)cc1` [Example 83, 1-(2-Phenyl-thiazol-4-ylmethyl)-3-trifluoromethyl-1H-pyrazole-4-carboxylic acid 4-aminomethyl-benzylamide], the midpoint of inhibition at trypsin, the IC50, lay at 26.6 µM.
The same measure, in the same setting: under `Cc1cc(CN)ccc1CNC(=O)c1cc(C)n(Cc2csc(-c3ccccc3)n2)c1C` [Example 2, 2,5-Dimethyl-1-(2-phenyl-thiazol-4-ylmethyl)-1H-pyrrole-3-carboxylic acid 4-aminomethyl-2-methyl-benzylamide] stands greater than 40 µM.
For the compound `N=C(N)c1ccc(CNC(=O)c2cnn(Cc3ccccc3)c2)cc1` [ASP-440], the “retinal vascular permeability and retinal blood flow abnormalities” value in the series with diabetic rats is listed as “ameliorated”.
For `Cc1cc(C(=O)NCc2ccc(CN)cc2)c(C)n1Cc1cc(-c2ccccc2)cs1` [Example 9, 2,5-Dimethyl-1-(4-phenyl-thiophen-2-ylmethyl)-1H-pyrrole-3-carboxylic acid 4-aminomethyl-benzylamide], the IC50 at Human plasma kallikrein is 0.543 µM; against Human KLK1, greater than 10 µM.
Taken in the same sequence, the figures for `Cc1cc(C(=O)NCc2ccc(CN)cc2)c(C)n1Cc1csc(-c2ccoc2)n1` [Example 39, 2,5-Dimethyl-1-(2-furan-3-yl-thiazol-4-ylmethyl)-1H-pyrrole-3-carboxylic acid 4-aminomethyl-benzylamide] were 1.09 µM and greater than 10 µM.
The compound `NCc1ccc(CNC(=O)c2cn(Cc3ccccc3)nc2-c2ccccc2)cc1` [Example 84, 1-Benzyl-3-phenyl-1H-pyrazole-4-carboxylic acid 4-aminomethyl-benzylamide] registered an IC50 on trypsin greater than 40 µM.

As usually defined, the IC50 is the point on the concentration scale where inhibition reaches its midpoint.
